US12171755B2, “PAPD5 inhibitors and methods of use thereof” (Children's Medical Center Corporation, priority 2017, dated 2024)

Target: T1, PAPD5 (Homo sapiens, UniProt Q8NDF8)
T1 construct: made in house
Assay: High-throughput luminescence (KinaseGlo) RNA polyadenylation assay, ATP utilization by recombinant PAPD5
Type: biochemical
Conditions: Table 4 (entries of Table 5), ratio of luminescence with inhibitor to DMSO; for Fold-change determined at compound concentration 33 μM: 33 μM compound; for Fold-change determined at compound concentration 100 μM: 100 μM compound, higher = higher inhibition
How it was run: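 Recombinant PAPD5 polyadenylates an oligonucleotide substrate using ATP, and remaining ATP is read by KinaseGlo luciferase luminescence. Compound was incubated for 2 h at room temperature, then with luciferase for 10 min.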

T1 sequence (Q8NDF8 68-698 isoform Q8NDF8-5): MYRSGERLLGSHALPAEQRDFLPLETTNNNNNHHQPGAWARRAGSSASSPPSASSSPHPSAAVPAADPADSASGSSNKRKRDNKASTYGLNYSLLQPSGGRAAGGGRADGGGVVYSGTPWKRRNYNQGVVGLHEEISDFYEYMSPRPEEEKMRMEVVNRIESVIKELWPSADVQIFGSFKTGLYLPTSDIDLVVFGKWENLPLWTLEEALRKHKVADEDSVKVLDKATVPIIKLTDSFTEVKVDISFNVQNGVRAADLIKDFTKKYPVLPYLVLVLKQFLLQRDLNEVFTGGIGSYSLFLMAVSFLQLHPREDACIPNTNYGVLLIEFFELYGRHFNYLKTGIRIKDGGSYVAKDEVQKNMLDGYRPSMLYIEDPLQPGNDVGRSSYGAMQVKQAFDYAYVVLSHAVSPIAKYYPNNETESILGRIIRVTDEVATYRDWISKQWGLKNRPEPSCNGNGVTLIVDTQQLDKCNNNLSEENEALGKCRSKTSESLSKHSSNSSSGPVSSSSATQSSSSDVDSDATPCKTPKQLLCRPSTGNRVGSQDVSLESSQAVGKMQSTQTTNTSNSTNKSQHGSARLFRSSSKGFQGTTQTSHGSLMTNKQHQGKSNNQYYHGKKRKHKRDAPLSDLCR

SMILES	Fold-change determined at compound concentration 10 μM (10 μM compound)	Fold-change determined at compound concentration 33 μM	Fold-change determined at compound concentration 100 μM
CCc1nnc(NC(=O)c2cc(=O)c3cc(C)c(C)cc3o2)s1 [Entry 123, N-(5-ethyl-1,3,4-thiadiazol-2-yl)-6,7-dimethyl-4-oxo-4H-chromene-2-carboxamide]	1.211	1.528	2.189
CCS(=O)(=O)c1nc2ccc(NS(=O)(=O)c3ccc(F)c(F)c3)cc2s1 [Entry 206, N-(2-(ethylsulfonyl)benzo[d]thiazol-6-yl)-3,4-difluorobenzenesulfonamide]	–	1.08	1.225
O=C(Cn1nc(Cc2ccncc2)c2ccccc2c1=O)N1CC=C(c2ccccc2)CC1 [Entry 209, 2-[2-oxo-2-(4-phenyl-3,6-dihydropyridin-1(2H)-yl)ethyl]-4-(pyridin-4-ylmethyl)phthalazin-1(2H)-one]	–	1.093	1.274
CSc1nnc(NC(=O)c2cc(=O)c3cc(C)c(C)cc3o2)s1 [Entry 125, 6,7-dimethyl-N-[5-(methylsulfanyl)-1,3,4-thiadiazol-2-yl]-4-oxo-4H-chromene-2-carboxamide]	–	1.147	1.444
CCOc1cccc2c1N[C@@H](c1ccc(C(=O)O)cc1)[C@H]1CC=C[C@@H]21 [Entry 101, 4-[(3aS,4R,9bR)-6-ethoxy-3a,4,5,9b-tetrahydro-3H-cyclopenta[c]quinolin-4-yl]benzoic acid]	–	1.265	2.042
CCCc1nnc(NC(=O)c2cc(=O)c3cc(C)c(C)cc3o2)s1 [Entry 127, 6,7-dimethyl-4-oxo-N-(5-propyl-1,3,4-thiadiazol-2-yl)-4H-chromene-2-carboxamide]	–	1.397	1.984
Cc1ccc(NC(=O)c2ccc3c(O)c(S(=O)(=O)c4ccc(Cl)cc4)c(=O)[nH]c3c2)cc1 [Entry 95, 3-(4-chlorophenyl)sulfonyl-4-hydroxy-N-(4-methylphenyl)-2-oxo-1H-quinoline-7-carboxamide]	–	1.156	1.228
Cc1ccc2c(c1)n(Cc1ccc(Cl)cc1)c(=O)c1nc(C(=O)O)nn12 [Entry 213, 5-(4-chlorobenzyl)-7-methyl-4-oxo-4,5-dihydro[1,2,4]triazolo[1,5-a]quinoxaline-2-carboxylic acid]	–	1.199	1.579
Cc1ccc(C)c(NC(=O)c2ccc3c(O)c(S(=O)(=O)c4ccc(Cl)cc4)c(O)nc3c2)c1 [Entry 96, (Z)-3-((4-chlorophenyl)sulfonyl)-N-(2,5-dimethylphenyl)-2,4-dihydroxyquinoline-7-carbimidic acid]	–	1.184	1.23
COc1cc(C2CC(=O)Nc3c2sc(C(=O)O)c3-c2cccc(F)c2)ccc1OCC(N)=O (centres unmarked) [Entry 197, 7-[4-(2-amino-2-oxoethoxy)-3-methoxyphenyl]-3-(3-fluorophenyl)-5-oxo-4,5,6,7-tetrahydrothieno[3,2-b]pyridine-2-carboxylic acid]	–	1.142	1.412
N#CC1=C2SCN(C3CCCCC3)CN2C(=O)CC1c1ccc(Br)cc1 (centres unmarked) [Entry 196, 8-(4-bromophenyl)-3-cyclohexyl-6-oxo-3,4,7,8-tetrahydro-2H,6H-pyrido[2,1-b][1,3,5]thiadiazine-9-carbonitrile]	–	1.09	1.326
